These results are taken from ChEMBL document CHEMBL2406999, “Vialinin A is a ubiquitin-specific peptidase inhibitor” (Bioorg Med Chem Lett, 2013).

Each structure is given as a SMILES string. Residue numbers refer to the chain shown, from its start. Activity calls are given as the source filed them. The rule behind the calls is not given here.

Assay [1] addresses Cathepsin B (Homo sapiens) (UniProt P07858). Description: Inhibition of cathepsin B (unknown origin) at 6.3 uM after 20 mins by fluorometric analysis.
In assay [2] the target is T1, Ubiquitin carboxyl-terminal hydrolase isozyme L3 (Homo sapiens) (UniProt P15374).
T1 sequence (whole entry): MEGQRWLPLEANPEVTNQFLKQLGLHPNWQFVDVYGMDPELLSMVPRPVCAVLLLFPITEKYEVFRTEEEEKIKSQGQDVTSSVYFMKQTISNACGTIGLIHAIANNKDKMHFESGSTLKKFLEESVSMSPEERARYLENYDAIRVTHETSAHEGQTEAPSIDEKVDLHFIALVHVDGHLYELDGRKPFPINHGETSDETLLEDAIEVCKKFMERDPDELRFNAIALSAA
Description: Inhibition of human UCH-L3 using Ub-AMC as substrate at 1 to 30 uM after 60 mins by fluorometric analysis.

Assay [3] addresses T2, Ubiquitin carboxyl-terminal hydrolase 5 (Homo sapiens, UniProt P45974).
T2 sequence (P45974 whole entry): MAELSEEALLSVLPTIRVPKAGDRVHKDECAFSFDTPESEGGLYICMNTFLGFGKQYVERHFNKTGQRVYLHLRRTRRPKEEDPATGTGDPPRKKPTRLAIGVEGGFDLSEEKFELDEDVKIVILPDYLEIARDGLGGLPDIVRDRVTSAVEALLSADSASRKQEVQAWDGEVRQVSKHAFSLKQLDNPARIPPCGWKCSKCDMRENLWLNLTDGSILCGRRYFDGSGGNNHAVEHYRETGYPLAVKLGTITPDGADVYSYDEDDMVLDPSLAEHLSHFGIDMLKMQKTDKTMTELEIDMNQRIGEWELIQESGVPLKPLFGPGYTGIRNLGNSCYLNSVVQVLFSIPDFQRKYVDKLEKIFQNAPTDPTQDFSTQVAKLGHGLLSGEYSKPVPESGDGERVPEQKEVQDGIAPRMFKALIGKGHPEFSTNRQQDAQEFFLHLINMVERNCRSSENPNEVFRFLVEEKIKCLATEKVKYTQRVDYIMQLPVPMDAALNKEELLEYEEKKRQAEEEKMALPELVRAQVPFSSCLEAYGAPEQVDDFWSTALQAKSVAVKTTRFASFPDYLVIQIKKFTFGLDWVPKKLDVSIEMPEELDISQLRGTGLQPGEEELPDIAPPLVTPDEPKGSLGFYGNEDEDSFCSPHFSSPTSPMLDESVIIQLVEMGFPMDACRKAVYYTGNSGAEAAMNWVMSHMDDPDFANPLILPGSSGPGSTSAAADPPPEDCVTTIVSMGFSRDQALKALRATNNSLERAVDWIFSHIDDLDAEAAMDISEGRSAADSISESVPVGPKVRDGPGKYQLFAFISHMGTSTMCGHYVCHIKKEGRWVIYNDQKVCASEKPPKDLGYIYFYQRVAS
As to the kind of experiment: Competitive inhibition of wild type human USP5 expressed in Escherichia coli BL21(DE3) using Ub-AMC as substrate.

Assay [4] deals with T3, Ubiquitin carboxyl-terminal hydrolase 5 (Homo sapiens), P45974 [C335A].
T3 sequence (whole entry): T2 sequence (P45974 whole entry) with C335A
Description: Competitive binding affinity to human USP5 C335A mutant by SDS-PAGE analysis in presence of biotin-DMT.

The target in assay [5] is T4, Ubiquitin carboxyl-terminal hydrolase 5 (Homo sapiens) (UniProt P45974).
T4 sequence (whole entry): T2 sequence (P45974 whole entry)
Description: Competitive binding affinity to human recombinant USP5 after 1 hr by SDS-PAGE analysis in presence of biotin-DMT.

For the compound `O=C(Cc1ccccc1)Oc1c(OC(=O)Cc2ccccc2)c(-c2ccc(O)cc2)c(O)c(O)c1-c1ccc(O)cc1` [VIALININ A], the inhibition result in assay [1] and in assay [2] was “inactive” in each case. In assay [3], the Ki (in general, a dissociation constant, usually derived from enzyme kinetics or from competition with a known ligand) was 12.5 µM. Further, the result in assay [4] was inactive. Moreover, in assay [5], the result was Active.
